Assay [1] relates to BA8 Fab. Description: DSF stabilizing effect of peptides on BA8. The note with it: BA8 Fab before and after binding of peptide (solution after ITC). The arrangement: species or system rabbit. As for the experimental part:
To assess the effect of sulfated peptide binding on the thermal stability of BA8, we performed differential scanning fluorimetry (DSF) measurements (Fig. 2C) ([25]). The melting temperature (Tm) of BA8 forming a complex with the sulfated peptide was 75.6 °C, whereas the pre-binding Tm was 70.8 °C.
The stabilization effect of the addition of these partially sulfated peptides on BA8 was evaluated using DSF measurements (Fig. S8).
The DSF thermal stability measurements were performed using a CFX Real-Time PCR System (Bio-Rad). First, 1 μl of 100 × SYPRO Orange stain was diluted with 19 μl of 8.3 μM unbound-BA8 Fab or the solution remaining in the cell after ITC measurement. Next, fluorescence was scanned every minute to obtain melting curves of the solutions as they were heated at 1.0 °C/min. The change in the scanned relative fluorescence unit per unit time was recorded, and the temperature at its peak was considered to be the melting temperature (Tm) ([42]).

In assay [2] the test system is BA8 Fab. Description: SPR analysis of sulfated, non-sulfated and partially sulfated CCR5 N-terminal peptides with BA8. Type of assay: binding, rabbit. The conditions noted are these: for kon: SPR Biacore 8K, BA8 Fab immobilized on CM5 chip, PBS 0.005% Tween 20, global fitting; for kon / Kd / koff: partially sulfated peptide as analyte; for Kd / koff / binding of peptide to BA8 in SPR, in words: SPR, BA8 Fab immobilized; for binding of peptide to BA8 in SPR, in words: peptides 2 to 162 nM as analyte (statements of b30 and b31 cover SPR and ITC). From the text: To quantitatively evaluate the intermolecular interaction between BA8 and the sulfated N-terminal peptide of CCR5, we prepared a Fab fragment of BA8 as a recombinant protein (Fig. S2, A and B) and conducted kinetic interaction analysis using SPR. The Fab was immobilized on a sensor chip using amine coupling, and the synthesized sulfated and non-sulfated N-terminal peptides of CCR5 were used as the analytes.
(§1) We prepared these partially sulfated peptides and analyzed their interactions with BA8 using SPR and ITC (Fig. 4, B and C, Tables 3 and 4). […] These findings indicate that sulfation at 7Tys is essential for BA8 recognition. […] Thus, the high specificity and affinity of BA8 for the sulfated CCR5 N-terminal peptide likely rely heavily on the sulfation at 7Tys and 8Tys. […] In other words, BA8 recognizes not only sulfation of the N-terminal peptide of CCR5, but it is also selective about the sulfation site.
The bindings of the peptides to Fabs were analyzed using a Biacore 8K instrument (Cytiva). Each Fab was immobilized on the surface of a CM5 sensor chip (Cytiva) by the amine-coupling method according to the manufacturer’s instructions in the condition of pH 5.5. The immobilization level reached to about 3000 Response Unit (RU). PBS containing 0.005% Tween 20 was used as the running buffer. The kinetic data were obtained by injection of increasing concentrations of peptides into the sensor chip. The flow rate of the analyte were set to 30 μl/min. The data were analyzed using BIAevaluation software (Cytiva), and the binding affinity as well as kinetic parameters were calculated by a global fitting of the curves.

Assay [3] deals with BA8 Fab. Description: ITC analysis of sulfated, non-sulfated and partially sulfated CCR5 N-terminal peptides with BA8. Type of assay: binding, rabbit. The conditions noted are these: PBS; for Kd / ΔH: 10 μM BA8 Fab in cell, 100 μM peptide in syringe, 25 °C.
Text: To determine the thermodynamic parameters accompanying the interaction, we performed an ITC analysis (Fig. 2B, Table 2).
as §1
The ITC experiments were performed using a MicroCal PEAQ-ITC (Malvern Panalytical, Malvern, UK). The BA8 Fab fragment antibody, sufficiently dialyzed in PBS, was adjusted to 10 μM for the cells, and the CCR5 N-terminal peptide, dissolved in the dialysate, was adjusted to 100 μM for the syringe. The first injection of 0.5 μl (omitted from the analysis) was followed by 19 injections of 2 μl with 120 s intervals at a constant temperature of 25 °C. The titration syringe was continuously stirred at 750 rpm.
The baselines were smoothly adjusted for the step after each titration saturated and fitted as one set of sites binding in MicroCal PEAQ-ITC Analysis Software (Malvern Panalytical, Malvern, UK).

Assay [4] concerns YU2 (CCR5 tropic strain) strain in TZM-bl cells. Description: Pseudoviral assay (single-round viral infective assay) in TZM-bl cells. The conditions noted are these: 48 h post-infection, luciferase read-out, BA8 up to 50 μg/ml (approximately 350 nM). Type of assay: cell-based, HIV.
Experimental: Subsequently, we conducted a pseudoviral test using TZM-bl cells.
The anti-HIV activity of BA8, isotype control antibody, and Maraviroc (Sigma-Aldrich) in a single-round viral infective assay against the YU2 (CCR5 tropic strain) strain in TZM-bl cells. At 48 h post-infection, cells were lysed, and relative light units were measured using a Steady-Glo luciferase assay system and GloMax Discover microplate reader (Promega).
Assay [5] addresses full-length CCR5-FLAG co-expressed with TPST1 and TPST2 in HEK293 cells (C12 cells), sulfated by TPST2 (UniProt P51681). The experiment in a line: flow cytometry on cells; transfected HEK293 cells (C, C1, C2, C12) or TZM-bl cells fixed with 2% paraformaldehyde; BA8 IgG detected with goat anti-rabbit IgG Alexa 488; median fluorescence against BA8 concentration fitted with a sigmoid function.

In assay [6] the target is endogenous CCR5 expressed on TZM-bl cells (human (endogenous in TZM-bl)) (UniProt P51681). Described as above.
Assay [7] has as its target full-length CCR5-FLAG co-expressed with TPST2 in HEK293 cells (C2 cells), sulfated by TPST2 (UniProt P51681). The description is as above.

Entries after “also recorded” stand apart in the source; their conditions may differ. Where no end group is shown, it is not given here. [ ]: non-standard residue; d: D form. sY = N[C@@H](Cc1ccc(OS(=O)(=O)O)cc1)C(=O)O

Sequence of full-length CCR5-FLAG co-expressed with TPST2 in HEK293 cells (C2 cells), sulfated by TPST2 (P51681 whole entry): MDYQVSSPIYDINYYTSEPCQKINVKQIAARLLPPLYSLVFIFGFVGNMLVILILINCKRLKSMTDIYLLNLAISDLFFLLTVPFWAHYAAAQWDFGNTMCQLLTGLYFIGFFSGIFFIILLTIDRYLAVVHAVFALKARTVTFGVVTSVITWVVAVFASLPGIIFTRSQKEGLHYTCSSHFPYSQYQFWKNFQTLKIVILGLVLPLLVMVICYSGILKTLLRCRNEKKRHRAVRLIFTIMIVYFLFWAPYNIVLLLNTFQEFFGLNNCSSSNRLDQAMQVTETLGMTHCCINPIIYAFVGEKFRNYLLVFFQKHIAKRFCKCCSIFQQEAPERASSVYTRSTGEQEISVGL
Sequence of endogenous CCR5 expressed on TZM-bl cells (human (endogenous in TZM-bl)) (P51681 whole entry): as above
Sequence of full-length CCR5-FLAG co-expressed with TPST1 and TPST2 in HEK293 cells (C12 cells), sulfated by TPST2 (P51681 whole entry): as above

“TYS7: partially sulfated CCR5 N-terminal peptide containing 7Tys (PIYDIN[sY]YTSE; UniProt P51681 8-18, looked up, fragment)”: in assay [1], the “effect of the peptide on the thermal stability (Tm) of BA8, in words” value (“effect of the peptide” for short) is reported as “contribute to the stabilization of BA8; also recorded: lower than those of TYS3,7,8”. Besides, in assay [2], the kon was determined as 228000 mol/L/s; the dissociation constant (Kd) is 67.8 nM; the koff was 0.0154 s⁻¹; the “binding of peptide to BA8 in SPR, in words” value (“binding … in SPR, in words” below) is recorded as “bound; also recorded: weak binding”. In assay [3], this molecule showed a Kd of 13.4 nM and a ΔH of -14.9 kcal/mol. In assay [3] (10 μM BA8 Fab, 100 μM peptide), the ΔG is -10.7 kcal/mol and the “−TΔS” value turned out to be 4.21 kcal/mol.

With “TYS3: partially sulfated CCR5 N-terminal peptide containing 3Tys (PI[sY]DINYYTSE; UniProt P51681 8-18, looked up, fragment)”, the “effect of the peptide” value in assay [1] is “did not change the thermal stability of BA8 at all”. Besides, in assay [2], the “binding … in SPR, in words” value was “no binding; also recorded: did not exhibit binding”.

Take “TYS3,8: partially sulfated CCR5 N-terminal peptide containing 3Tys and 8Tys (PI[sY]DINY[sY]TSE; UniProt P51681 8-18, looked up, fragment)”: the “effect of the peptide” value in assay [1] is “did not change the thermal stability of BA8 at all”. In addition, the results for the “binding … in SPR, in words” value in assay [2] and in assay [2] (listed as TYS38) were “did not exhibit binding” and “no binding”, respectively.

For the molecule “sulfated peptide: CCR5 N-terminal peptide Pro8 to Ser18 with sulfated Tyr10, Tyr14, and Tyr15; fully sulfated (PI[sY]DIN[sY][sY]TSE; UniProt P51681 8-18, looked up, fragment)”, in assay [2], the “binding … in SPR, in words” value was “high binding affinity in the nanomolar range”. Also, the “binding of peptide to BA8 in ITC, in words” value in assay [3] (10 μM BA8 Fab, 100 μM peptide) is given as “so high that it could not be accurately measured”.

For “TYS3,7: partially sulfated CCR5 N-terminal peptide containing 3Tys and 7Tys (PI[sY]DIN[sY]YTSE; UniProt P51681 8-18, looked up, fragment)”, in assay [1], the “effect of the peptide” value is “lower than those of TYS3,7,8”. Further, the “effect of the peptide” value in assay [1] (listed as TYS37) is given as “contribute to the stabilization of BA8”. In assay [2], the kon was found to be 265000 mol/L/s; binding was put at a Kd of 45 nM; the koff turned out to be 0.0119 s⁻¹; the “binding … in SPR, in words” value is “weak binding”. In assay [2] (listed as TYS37), the “binding … in SPR, in words” value is reported as “bound”. Besides, in assay [3], the dissociation constant (Kd) came to 7.65 nM and the ΔH was -15.8 kcal/mol. In addition, in assay [3] (10 μM BA8 Fab, 100 μM peptide), the ΔG was -11.1 kcal/mol and the “−TΔS” value came out at 4.68 kcal/mol.

Take Maraviroc [reference compound]: the “inhibition of HIV infection, in words” value in assay [4] is recorded as “inhibited HIV infection; also recorded: concentration-dependent inhibition of viral infection”.

B1: BA8 full-length IgG (recombinant, rabbit IgG Fc) (antibody, V domains shown)
VH: QSLEESGGGLFKPTDTLTLTCTVSGFSLSSYSIRWVRQAPGNGLEWIGAIGSGGNAYYTSWAKSRSTITRNTNENTVTLKMTSLTVADTATYFCARGGINFGIWGPGTLVTVSS
VL: AAVLTQTPSPVSAAVGSTVTINCQSSQSVYSKNWLSWFQQKPGQPPKQLIYSASTLDSGVPSRFSGSGSGTQFTLTISGVQCDDAATYYCQGTYGDASAFGGGTEVVVK
Consider B1, for which the EC50 in assay [5] came to 3.71 nM; in assay [6] it was 49 nM; in assay [7] it was 3.64 nM.

Source of the values: PMC11849073, “Specific recognition mechanism of an antibody to sulfated tyrosine and its potential use in biological research” (The Journal of Biological Chemistry, 2025).
